Reference: PMC5218480 (PLoS ONE, 2017)

Tested on: MV-4-11 cells
Assay: Gene expression microarray analysis (Affymetrix PrimeView) and GSEA
Format: cell-based, human
Parameters: RFU PODN (11730768_x_at) / Fold change /veh PODN (11730768_x_at) / RFU LINC00158 (11744669_a_at) / Fold change /veh LINC00158 (11744669_a_at) / RFU DUSP10 (11751237_a_at) / Fold change /veh DUSP10 (11751237_a_at) / RFU ID3 (11757404_x_at) / Fold change /veh ID3 (11757404_x_at) / RFU PLEKHG5 (11737974_s_at) / Fold change /veh PLEKHG5 (11737974_s_at) / RFU LRRC4B (11730491_at) / Fold change /veh LRRC4B (11730491_at) / RFU GIMAP4 (11747438_a_at) / Fold change /veh GIMAP4 (11747438_a_at) / RFU KRT8 (11758183_x_at) / Fold change /veh KRT8 (11758183_x_at) / RFU CNN1 (11734310_a_at) / Fold change /veh CNN1 (11734310_a_at) / RFU VPS37D (11726825_at) / Fold change /veh VPS37D (11726825_at) / RFU C10orf10 (11716522_x_at) / Fold change /veh C10orf10 (11716522_x_at) / RFU KIR2DL2 /// KIR2DL4 /// KIR2DL5A /// KIR2DL5B /// KIR2DS1 /// KIR2DS2 /// KIR2DS3 /// KIR2DS4 /// KIR3DL3 /// KIR3DL3 /// KIR3DS1 (11738374_at) / Fold change /veh KIR2DL2 /// KIR2DL4 /// KIR2DL5A /// KIR2DL5B /// KIR2DS1 /// KIR2DS2 /// KIR2DS3 /// KIR2DS4 /// KIR3DL3 /// KIR3DL3 /// KIR3DS1 (11738374_at) / RFU C1QL1 (11718748_at) / Fold change /veh C1QL1 (11718748_at) / RFU TMPRSS4 (11747572_a_at) / Fold change /veh TMPRSS4 (11747572_a_at) / RFU HAMP (11756126_x_at) / Fold change /veh HAMP (11756126_x_at) / RFU RNFT2 (11725882_a_at) / Fold change /veh RNFT2 (11725882_a_at) / RFU NR4A2 (11747474_a_at) / Fold change /veh NR4A2 (11747474_a_at) / RFU ABCC12 (11746883_a_at) / Fold change /veh ABCC12 (11746883_a_at) / RFU TMEM136 (11760407_x_at) / Fold change /veh TMEM136 (11760407_x_at) / RFU CLDN22 /// WWC2 (11732394_at) / Fold change /veh CLDN22 /// WWC2 (11732394_at) / RFU HLA-DPB1 (11760878_x_at) / Fold change /veh HLA-DPB1 (11760878_x_at) / RFU SPINT1 (11716480_a_at) / Fold change /veh SPINT1 (11716480_a_at) / RFU GAP43 (11754022_s_at) / Fold change /veh GAP43 (11754022_s_at) / RFU A4GNT (11735810_at) / Fold change /veh A4GNT (11735810_at) / RFU PRB3 (11715151_x_at) / Fold change /veh PRB3 (11715151_x_at) / RFU TUBB4B (11761932_at) / Fold change /veh TUBB4B (11761932_at) / RFU CAPN14 (11732068_a_at) / Fold change /veh CAPN14 (11732068_a_at) / RFU TMCC2 (11721928_a_at) / Fold change /veh TMCC2 (11721928_a_at) / RFU IRGQ (11745062_a_at) / Fold change /veh IRGQ (11745062_a_at) / RFU FAM174B (11720279_a_at) / Fold change /veh FAM174B (11720279_a_at) / RFU TMPRSS4 (11748680_a_at) / Fold change /veh TMPRSS4 (11748680_a_at) / RFU FAM212B (11763350_a_at) / Fold change /veh FAM212B (11763350_a_at) / RFU PLEKHG5 (11743358_a_at) / Fold change /veh PLEKHG5 (11743358_a_at) / RFU ZSCAN30 (11745921_a_at) / Fold change /veh ZSCAN30 (11745921_a_at) / RFU CMKLR1 (11741424_a_at) / Fold change /veh CMKLR1 (11741424_a_at) / RFU LOC101060620 /// MAPK8IP1 (11723275_at) / Fold change /veh LOC101060620 /// MAPK8IP1 (11723275_at) / RFU SPTSSB (11747773_x_at) / Fold change /veh SPTSSB (11747773_x_at) / RFU PRSS12 (11739890_at) / Fold change /veh PRSS12 (11739890_at) / RFU BIN1 (11741810_x_at) / Fold change /veh BIN1 (11741810_x_at) / RFU WNT11 (11732464_a_at) / Fold change /veh WNT11 (11732464_a_at) / RFU C10orf10 (11716521_a_at) / Fold change /veh C10orf10 (11716521_a_at) / RFU C5orf56 (11738089_at) / Fold change /veh C5orf56 (11738089_at) / RFU CYB561 (11721691_x_at) / Fold change /veh CYB561 (11721691_x_at) / RFU ANKRD19P (11752326_a_at) / Fold change /veh ANKRD19P (11752326_a_at) / RFU OR2T12 /// OR2T33 /// OR2T8 (11738714_s_at) / Fold change /veh OR2T12 /// OR2T33 /// OR2T8 (11738714_s_at) / RFU VCAN (11748164_a_at) / Fold change /veh VCAN (11748164_a_at) / RFU JSRP1 (11732532_at) / Fold change /veh JSRP1 (11732532_at) / RFU KRTAP10-11 (11738290_x_at) / Fold change /veh KRTAP10-11 (11738290_x_at) / RFU MYO3A (11730013_a_at) / Fold change /veh MYO3A (11730013_a_at) / RFU EBF3 (11725865_a_at) / Fold change /veh EBF3 (11725865_a_at) / RFU CAMK2N1 (11719241_x_at) / Fold change /veh CAMK2N1 (11719241_x_at) / RFU C5orf56 (11738088_a_at) / Fold change /veh C5orf56 (11738088_a_at) / RFU OLFML3 (11715873_a_at) / Fold change /veh OLFML3 (11715873_a_at) / RFU LOC100653217 /// NTM (11731650_a_at) / Fold change /veh LOC100653217 /// NTM (11731650_a_at) / RFU MAPK11 (11762145_a_at) / Fold change /veh MAPK11 (11762145_a_at) / RFU FIZ1 (11724087_x_at) / Fold change /veh FIZ1 (11724087_x_at) / RFU OASL (11726364_x_at) / Fold change /veh OASL (11726364_x_at) / RFU SOX15 (11748057_x_at) / Fold change /veh SOX15 (11748057_x_at) / RFU CD79A (11719716_a_at) / Fold change /veh CD79A (11719716_a_at) / RFU HIST1H1D (11736915_at) / Fold change /veh HIST1H1D (11736915_at) / RFU CASKIN2 (11723855_a_at) / Fold change /veh CASKIN2 (11723855_a_at) / RFU LOC730098 (11760151_x_at) / Fold change /veh LOC730098 (11760151_x_at) / RFU OR4N2 (11742367_at) / Fold change /veh OR4N2 (11742367_at) / RFU PRRT2 (11749266_a_at) / Fold change /veh PRRT2 (11749266_a_at) / RFU SNX32 (11753110_a_at) / Fold change /veh SNX32 (11753110_a_at) / RFU CDHR5 (11726645_a_at) / Fold change /veh CDHR5 (11726645_a_at) / RFU RCAN1 (11760418_a_at) / Fold change /veh RCAN1 (11760418_a_at) / RFU FAM167A (11723789_a_at) / Fold change /veh FAM167A (11723789_a_at) / RFU FAM26E (11764081_at) / Fold change /veh FAM26E (11764081_at) / RFU ISYNA1 (11749810_s_at) / Fold change /veh ISYNA1 (11749810_s_at) / RFU ACY1 (11761880_at) / Fold change /veh ACY1 (11761880_at) / RFU 11764098_at / Fold change /veh 11764098_at / RFU SAMD14 (11745864_x_at) / Fold change /veh SAMD14 (11745864_x_at) / RFU NPB (11741838_a_at) / Fold change /veh NPB (11741838_a_at) / RFU TMPRSS6 (11731388_a_at) / Fold change /veh TMPRSS6 (11731388_a_at) / RFU KRTAP10-2 (11738614_at) / Fold change /veh KRTAP10-2 (11738614_at) / RFU ARHGAP8 /// PRR5-ARHGAP8 (11727945_x_at) / Fold change /veh ARHGAP8 /// PRR5-ARHGAP8 (11727945_x_at) / RFU KRTAP5-7 /// NADSYN1 (11734609_at) / Fold change /veh KRTAP5-7 /// NADSYN1 (11734609_at) / RFU RASL12 (11751679_a_at) / Fold change /veh RASL12 (11751679_a_at) / RFU CDKN2B (11736163_a_at) / Fold change /veh CDKN2B (11736163_a_at) / RFU PRF1 (11729649_at) / Fold change /veh PRF1 (11729649_at) / RFU, ZNF638 /// ZNF638-IT1 / Fold change vs veh, ZNF638 /// ZNF638-IT1 / RFU, PANK3 / Fold change vs veh, PANK3 / RFU, SH3YL1 / Fold change vs veh, SH3YL1 / RFU, ZEB2 / Fold change vs veh, ZEB2 / RFU, NRIP1 / Fold change vs veh, NRIP1 / RFU, PTTG1IP / Fold change vs veh, PTTG1IP / RFU, CAPN2 / Fold change vs veh, CAPN2 / RFU, MED14 / Fold change vs veh, MED14 / RFU, SNORA58 / Fold change vs veh, SNORA58 / RFU, C1orf63 / Fold change vs veh, C1orf63 / RFU, LRRFIP1 / Fold change vs veh, LRRFIP1 / RFU, NDUFAF7 / Fold change vs veh, NDUFAF7 / RFU, SLC12A2 / Fold change vs veh, SLC12A2 / RFU, IBTK / Fold change vs veh, IBTK / RFU, ESF1 / Fold change vs veh, ESF1 / Fold change vs veh, TMEM50B / RFU, TAOK1 / Fold change vs veh, TAOK1 / RFU, ACBD3 / Fold change vs veh, ACBD3 / RFU, TMA16 / Fold change vs veh, TMA16 / RFU, RWDD3 / Fold change vs veh, RWDD3 / RFU, BCAT1 / Fold change vs veh, BCAT1 / RFU, EDEM3 / Fold change vs veh, EDEM3 / RFU, TMEM33 / Fold change vs veh, TMEM33 / RFU, WDR75 / Fold change vs veh, WDR75 / RFU, AHCTF1 / Fold change vs veh, AHCTF1 / RFU, TFRC / Fold change vs veh, TFRC / RFU, ZDHHC17 / Fold change vs veh, ZDHHC17 / RFU, NOM1 / Fold change vs veh, NOM1 / RFU, ARL8B / Fold change vs veh, ARL8B / RFU, ZBTB11 / Fold change vs veh, ZBTB11 / RFU, TAMM41 / Fold change vs veh, TAMM41 / RFU, KIAA1704 /// LOC100996395 / Fold change vs veh, KIAA1704 /// LOC100996395 / RFU, ING1 / Fold change vs veh, ING1 / RFU, TRMT61B / Fold change vs veh, TRMT61B / RFU, FUBP3 / Fold change vs veh, FUBP3 / RFU, TP53 / Fold change vs veh, TP53 / RFU, TNKS2 / Fold change vs veh, TNKS2 / RFU, ZFP14 / Fold change vs veh, ZFP14 / RFU, ACTR2 / Fold change vs veh, ACTR2 / RFU, PPP3R1 / Fold change vs veh, PPP3R1 / RFU, PIK3R1 / Fold change vs veh, PIK3R1 / RFU, HNRNPA1 / Fold change vs veh, HNRNPA1 / RFU, RNF170 / Fold change vs veh, RNF170 / RFU, ZNF28 / Fold change vs veh, ZNF28 / RFU, RNGTT / Fold change vs veh, RNGTT / RFU, OGT / Fold change vs veh, OGT / RFU, BRD1 / Fold change vs veh, BRD1 / RFU, MARS / Fold change vs veh, MARS / RFU, ZNF655 / Fold change vs veh, ZNF655 / RFU, FAHD1 / Fold change vs veh, FAHD1 / RFU, BDP1 / Fold change vs veh, BDP1 / RFU, LRRCC1 / Fold change vs veh, LRRCC1 / RFU, ARID1A / Fold change vs veh, ARID1A / RFU, ZNF146 / Fold change vs veh, ZNF146 / RFU, ZNF330 / Fold change vs veh, ZNF330 / RFU, GPN3 / Fold change vs veh, GPN3 / RFU, C9orf123 / Fold change vs veh, C9orf123 / RFU, N4BP2L2 / Fold change vs veh, N4BP2L2 / RFU, ARFIP1 / Fold change vs veh, ARFIP1 / RFU, FAM179B / Fold change vs veh, FAM179B / RFU, BCL10 / Fold change vs veh, BCL10 / RFU, UHRF1BP1L / Fold change vs veh, UHRF1BP1L / RFU, BET1 / Fold change vs veh, BET1 / RFU, CNOT2 / Fold change vs veh, CNOT2 / RFU, ZNF268 / Fold change vs veh, ZNF268 / Fold change vs veh, ZNF507 / RFU, DGCR2 / Fold change vs veh, DGCR2 / RFU, WDSUB1 / Fold change vs veh, WDSUB1 / Fold change vs veh, HSP90B1 /// MIR3652 / RFU, ADSS / Fold change vs veh, ADSS / RFU, GK / Fold change vs veh, GK / RFU, ZNF148 / Fold change vs veh, ZNF148 / RFU, TAF9 / Fold change vs veh, TAF9 / RFU, SLC1A5 / Fold change vs veh, SLC1A5 / RFU, SLMO2 / Fold change vs veh, SLMO2 / RFU, ABCC4 / Fold change vs veh, ABCC4 / RFU, LOC101060439 /// RAP1B / Fold change vs veh, LOC101060439 /// RAP1B / RFU, RFX7 / Fold change vs veh, RFX7 / RFU, GTPBP10 / Fold change vs veh, GTPBP10 / RFU, CNEP1R1 / Fold change vs veh, CNEP1R1 / RFU, BIVM-ERCC5 /// ERCC5 / Fold change vs veh, BIVM-ERCC5 /// ERCC5 / RFU, ILF3 / Fold change vs veh, ILF3 / RFU 11762660_at / Fold change /veh 11762660_at / RFU VCAN (11757783_s_at) / Fold change /veh VCAN (11757783_s_at) / RFU DDX43 (11728927_at) / Fold change /veh DDX43 (11728927_at) / RFU KRT8 (11758188_x_at) / Fold change /veh KRT8 (11758188_x_at) / RFU NKD1 (11759106_at) / Fold change /veh NKD1 (11759106_at) / RFU SRD5A1 (11742802_a_at) / Fold change /veh SRD5A1 (11742802_a_at) / RFU TPSAB1 /// TPSB2 (11721975_s_at) / Fold change /veh TPSAB1 /// TPSB2 (11721975_s_at) / RFU GSTM3 (11746129_a_at) / Fold change /veh GSTM3 (11746129_a_at) / RFU IL23R (11737362_x_at) / Fold change /veh IL23R (11737362_x_at) / RFU TMEM51 (11727254_a_at) / Fold change /veh TMEM51 (11727254_a_at) / RFU PIWIL2 (11732686_x_at) / Fold change /veh PIWIL2 (11732686_x_at) / RFU ORM1 (11744905_x_at) / Fold change /veh ORM1 (11744905_x_at) / RFU CCDC152 (11743942_at) / Fold change /veh CCDC152 (11743942_at) / RFU ECM1 (11717891_a_at) / Fold change /veh ECM1 (11717891_a_at) / RFU IL23R (11748794_a_at) / Fold change /veh IL23R (11748794_a_at) / RFU TNFAIP8L3 (11732012_x_at) / Fold change /veh TNFAIP8L3 (11732012_x_at) / RFU MBOAT4 (11741988_at) / Fold change /veh MBOAT4 (11741988_at) / RFU 11764193_at / Fold change /veh 11764193_at / RFU TMEM53 (11763286_at) / Fold change /veh TMEM53 (11763286_at) / RFU MAGEB2 (11727129_at) / Fold change /veh MAGEB2 (11727129_at) / RFU TMEM200A (11744735_a_at) / Fold change /veh TMEM200A (11744735_a_at) / RFU CCDC152 (11751479_a_at) / Fold change /veh CCDC152 (11751479_a_at) / RFU FAM211A (11726209_a_at) / Fold change /veh FAM211A (11726209_a_at) / RFU RGS16 (11746705_a_at) / Fold change /veh RGS16 (11746705_a_at) / RFU VCAN (11755009_s_at) / Fold change /veh VCAN (11755009_s_at) / RFU RHOB (11743442_s_at) / Fold change /veh RHOB (11743442_s_at) / RFU RGS16 (11720943_a_at) / Fold change /veh RGS16 (11720943_a_at) / RFU RGS16 (11720944_at) / Fold change /veh RGS16 (11720944_at) / RFU, VPS4B / Fold change vs veh, VPS4B / RFU, CREB1 / Fold change vs veh, CREB1 / RFU, DNAJC13 / Fold change vs veh, DNAJC13 / RFU, GNAQ / Fold change vs veh, GNAQ / RFU, CDK5R1 / Fold change vs veh, CDK5R1 / RFU, ZRANB3 / Fold change vs veh, ZRANB3 / RFU, CUL4A / Fold change vs veh, CUL4A / RFU, CCNY / Fold change vs veh, CCNY / RFU, UFL1 / Fold change vs veh, UFL1 / RFU, COG3 / Fold change vs veh, COG3 / RFU, DIAPH2 / Fold change vs veh, DIAPH2 / RFU, SKA2 / Fold change vs veh, SKA2 / RFU, AFF3 / Fold change vs veh, AFF3 / RFU, LMF1 / Fold change vs veh, LMF1 / RFU, IPO11 / Fold change vs veh, IPO11 / RFU, DFFB / Fold change vs veh, DFFB / RFU, FOXP1 / Fold change vs veh, FOXP1 / RFU, CARD8 / Fold change vs veh, CARD8 / RFU, STRN3 / Fold change vs veh, STRN3 / RFU, ADK / Fold change vs veh, ADK / RFU, RASSF2 / Fold change vs veh, RASSF2 / RFU, WIPF1 / Fold change vs veh, WIPF1 / RFU, LARP1B / Fold change vs veh, LARP1B / RFU, RASA1 / Fold change vs veh, RASA1 / RFU, RB1 / Fold change vs veh, RB1 / RFU, PPFIA1 / Fold change vs veh, PPFIA1 / RFU, MAT2A / Fold change vs veh, MAT2A / RFU, CCT5 / Fold change vs veh, CCT5 / RFU, WDR92 / Fold change vs veh, WDR92 / RFU, CUX1 / Fold change vs veh, CUX1 / RFU, TTC7A / Fold change vs veh, TTC7A / RFU, TMEM135 / Fold change vs veh, TMEM135 / RFU, DEPTOR / Fold change vs veh, DEPTOR / RFU, CPM / Fold change vs veh, CPM / RFU, DNAJB6 / Fold change vs veh, DNAJB6 / RFU, CACNA2D3 / Fold change vs veh, CACNA2D3 / RFU, DTX4 / Fold change vs veh, DTX4 / RFU, TFCP2 / Fold change vs veh, TFCP2 / RFU, GMCL1 /// GMCL1P1 / Fold change vs veh, GMCL1 /// GMCL1P1 / RFU, AEBP2 / Fold change vs veh, AEBP2 / RFU, SNHG1 /// SNORD22 /// SNORD25 /// SNORD26 /// SNORD27 /// SNORD28 /// SNORD29 /// SNORD31 / Fold change vs veh, SNHG1 /// SNORD22 /// SNORD25 /// SNORD26 /// SNORD27 /// SNORD28 /// SNORD29 /// SNORD31 / Fold change (Aza/veh), C12orf56 (ProbeSet 11735607_a_at) / Fold change (ACY-1035/veh), C12orf56 (ProbeSet 11735607_a_at) / Fold change (Aza/veh), FGFR1OP (ProbeSet 11751329_s_at) / Fold change (ACY-1035/veh), FGFR1OP (ProbeSet 11751329_s_at) / Fold change (Aza/veh), VPS36 (ProbeSet 11739960_a_at) / Fold change (ACY-1035/veh), VPS36 (ProbeSet 11739960_a_at) / RFU SYPL1 (11715823_x_at) / Fold change /veh SYPL1 (11715823_x_at) / RFU IGFBP7 (11715501_s_at) / Fold change /veh IGFBP7 (11715501_s_at) / RFU REEP3 (11722064_at) / Fold change /veh REEP3 (11722064_at) / RFU IGLL1 (11728026_x_at) / Fold change /veh IGLL1 (11728026_x_at): dose or concentration left out as unconfirmed
Conditions: ProbeSet 11725902_s_at; LIST D

Nc1ncn([C@@H]2O[C@H](CO)[C@@H](O)[C@H]2O)c(=O)n1 [azacitidine]
RFU, TMEM135: 62.37 RFU
